# Experimental data from patent US10391066B2, “Compositions and methods for the treatment of Parkinson's disease” (Texas Tech University System, priority 2012, dated 2019).
# Experiments:
# PP2A [1] = test: PP2A activity, cellular assay (FIG. 4B); format: cell-based
# [2] = system: C57/B16 Mice mouse model of Parkinson's disease; test: Paraquat mouse model of Parkinson's disease, brain immunohistochemistry (FIG. 5); format: in vivo
# rPP2A = rPP2A (Homo sapiens, UniProt P67775); test: recombinant PP2A (rPP2A) activity with FTY720 compounds; format: biochemical; details: versus rPP2A alone; for effect on rPP2A activity: across tested concentrations
# S1P receptors = details: with the exception of S1P2; cited from earlier work
# [3] = system: control and mutant A53T Syn PD mice; test: Grip strength in control and mutant A53T Syn PD mice (FIG. 7A); format: in vivo, mouse; details: 5 month old mice, FTY720 twice a week for 14 weeks versus vehicle
# [4] = system: control and mutant A53T Syn PD mice; test: Anxiety levels in control and mutant A53T Syn PD mice (FIG. 7B); format: in vivo, mouse
# [5] = system: BDNF expression in neurons; test: BDNF trophic factor expression in neurons (FIG. 6); format: cell-based
# PP2A [6] = molecular target: T1, PP2A (Homo sapiens, UniProt P67775); test: PP2A activity in response to ceramides and FTY720 compounds (FIG. 8); format: biochemical; details: for PP2A activity in response to compounds: FIG. 8B, C2 ceramide as internal control; for PP2A activity in response to Ceramides: FIG. 8A
# PP2A [7] = molecular target: T1, PP2A; test: PP2A activity, cell free assay (FIG. 4A); format: biochemical
# [8] = system: PP2A in mouse adrenal gland; test: PP2A activity in mouse adrenal gland after single dosing (FIG. 9B, 9D, 9F); format: in vivo; details: for effect on PP2A in mouse adrenal gland, IV delivery: single dose (FIG. 9D, 9F)
# rPP2A, sequence (P67775 whole entry): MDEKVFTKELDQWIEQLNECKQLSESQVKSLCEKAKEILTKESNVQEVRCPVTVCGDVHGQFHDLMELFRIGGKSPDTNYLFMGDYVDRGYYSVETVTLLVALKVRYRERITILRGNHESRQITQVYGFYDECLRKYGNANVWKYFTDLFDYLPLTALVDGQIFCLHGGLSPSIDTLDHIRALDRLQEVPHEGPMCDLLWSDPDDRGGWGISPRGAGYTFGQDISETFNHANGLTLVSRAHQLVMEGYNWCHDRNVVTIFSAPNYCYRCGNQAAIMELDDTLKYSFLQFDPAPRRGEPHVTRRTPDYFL
# T1 sequence (P67775 whole entry): as above
PP2A activity in response to Ceramides (PP2A [6]),Structure (SMILES),effect on rPP2A activity at 10 uM (rPP2A),effect on rPP2A activity (rPP2A),agonism of S1P receptors (S1P receptors),PP2A activity in response to compounds (PP2A [6]),"effect on PP2A in mouse adrenal gland, IV delivery [8]",also measured
,"CCCCCCCCc1ccc(CCC(N)(CO)CO)cc1 [FTY720, 2-amino-2-[2-(4-octylphenyl)ethyl]-1,3-propanediol]",not significantly greater than rPP2A alone,increases rPP2A activity more at lower concentrations than at higher concentrations,potent agonists of S1P receptors with the exception of S1P2,significantly stimulate PP2A activity,,"PP2A activity, cellular (PP2A [1]): stimulates PP2A activity; Paraquat toxicity ([2]; C57/B16 mice, FTY720 given before paraquat (PQ)): blocks Paraquat Toxicity; paraquat-stimulated increase in Syn in dopamine neurons ([2]; PQ given after FTY720, immunohistochemistry, TH-labelled neurons): blocks the increase in Syn; neuroinflammation as measured by microglial Ibal staining ([2]; adjacent tissue section): reduces neuroinflammation; mouse grip strength [3]: improves mouse grip strength; anxiety levels [4]: reduces anxiety levels; BDNF expression at the message level ([5]; neurons (FIG. 6B)): increased BDNF expression at the message level; BDNF at the protein level ([5]; neurons treated with FTY720, blot (FIG. 6A)): increased BDNF at the protein level; PP2A activity, cell free (PP2A [7]): stimulates PP2A activity"
,"CCCCCCCCc1ccc(CCC(N)(CO)COP(=O)(O)O)cc1 (stereo not shown) [FTY720-P, 2-amino-2-[2-(4-octylphenyl)ethyl]propane-1,3-diol phosphate]",,,potent agonists of S1P receptors with the exception of S1P2,,,
,"CCCCCCCCc1ccc(CCC(CO)(CO)NC(=O)CC[P+](c2ccccc2)(c2ccccc2)c2ccccc2)cc1 [FTY720-Mitoxy, (3-(1-hydroxy-2-(hydroxymethyl)-4-(4-octylphenyl)butan-2-ylamino)-3-oxopropyl) triphenyl phosphonium bromide]",significant inhibitory effect,moderate effect,,significantly stimulate PP2A activity,stimulatory effects,
,"CCCCCCCCc1ccc(CCC(CO)(CO)NC(C)=O)cc1 [FTY720-C2, N-(1-hydroxy-2-(hydroxymethyl)-4-(4-octylphenyl)butan-2-yl)ethanamide]",,biggest effect,,significantly stimulate PP2A activity,stimulatory effects,"effect on PP2A in mouse adrenal gland, oral delivery ([8]; gavage, single dose (FIG. 9B)): stimulatory effects"
able to stimulate PP2A activity,CCCCCCCCCCCCC/C=C/[C@@H](O)[C@H](CO)NC(C)=O [C2 ceramide],,,,significantly stimulate PP2A activity,,
able to stimulate PP2A activity,CCCCCCCCCCCCCC=CC(O)C(CO)NC(=O)CCCCC (stereo not shown) [Ceramide C6],,,,,,
